The CheMixHub viscosity set

Test: xn = mol fraction of the nth substance listed

COCCOCCOCCOCCOC + CCOC(C)=O
viscosity [mPa·s], 101 kPa
Conditions	298.15 K	308.15 K	318.15 K
x1 = 0.0108	0.448	0.399	0.364
x1 = 0.0195	0.462	0.413	0.375
x1 = 0.0488	0.514	0.456	0.413
x1 = 0.0905	0.594	0.521	0.465
x1 = 0.1406	0.695	0.607	0.534
x1 = 0.1786	0.779	0.673	0.591
x1 = 0.2377	0.919	0.784	0.68
x1 = 0.3377	1.176	0.988	0.847
x1 = 0.4796	1.579	1.315	1.092
x1 = 0.5793	1.896	1.549	1.282
x1 = 0.6422	2.11	1.699	1.4
x1 = 0.7422	2.453	1.97	1.549
x1 = 0.8246	2.726	2.169	1.755
x1 = 0.8574	2.878	2.258	1.826
x1 = 0.9081	3.019	2.398	1.921
x1 = 0.9454	3.159	2.488	1.998
x1 = 0.9792	3.305	2.581	2.072

Clc1ccccc1 + CCOC(C)=O
viscosity [mPa·s], 101 kPa
Conditions	298.15 K	308.15 K
x2 = 0.0415	0.729	0.658
x2 = 0.1504	0.669	0.607
x2 = 0.2503	0.621	0.567
x2 = 0.3519	0.58	0.531
x2 = 0.4264	0.553	0.507
x2 = 0.4878	0.534	0.489
x2 = 0.5527	0.515	0.472
x2 = 0.6519	0.489	0.448
x2 = 0.7505	0.468	0.428
x2 = 0.8515	0.449	0.409
x2 = 0.9389	0.436	0.396

N#CCCCCC#N + CCOC(C)=O
303.15 K, 101.33 kPa
Conditions	viscosity [mPa·s]
x1 = 0.1075	0.5353
x1 = 0.3039	0.8893
x1 = 0.3934	1.116
x1 = 0.4973	1.451
x1 = 0.5975	1.861
x1 = 0.6944	2.366
x1 = 0.85	3.442
